The record followed here is patent US20250064941A1, “SIGLEC LIGANDS, CONJUGATES, AND METHODS OF USE THEREOF” (Osprey Biopharmaceuticals, Inc., priority 2023, published 2025).

Assay [1] addresses T1, mouse Siglec-2-Fc-Avi (CD22) (Mus musculus, UniProt P35329).
T1 construct: made in house
T1 sequence (P35329 22-708 limits assumed): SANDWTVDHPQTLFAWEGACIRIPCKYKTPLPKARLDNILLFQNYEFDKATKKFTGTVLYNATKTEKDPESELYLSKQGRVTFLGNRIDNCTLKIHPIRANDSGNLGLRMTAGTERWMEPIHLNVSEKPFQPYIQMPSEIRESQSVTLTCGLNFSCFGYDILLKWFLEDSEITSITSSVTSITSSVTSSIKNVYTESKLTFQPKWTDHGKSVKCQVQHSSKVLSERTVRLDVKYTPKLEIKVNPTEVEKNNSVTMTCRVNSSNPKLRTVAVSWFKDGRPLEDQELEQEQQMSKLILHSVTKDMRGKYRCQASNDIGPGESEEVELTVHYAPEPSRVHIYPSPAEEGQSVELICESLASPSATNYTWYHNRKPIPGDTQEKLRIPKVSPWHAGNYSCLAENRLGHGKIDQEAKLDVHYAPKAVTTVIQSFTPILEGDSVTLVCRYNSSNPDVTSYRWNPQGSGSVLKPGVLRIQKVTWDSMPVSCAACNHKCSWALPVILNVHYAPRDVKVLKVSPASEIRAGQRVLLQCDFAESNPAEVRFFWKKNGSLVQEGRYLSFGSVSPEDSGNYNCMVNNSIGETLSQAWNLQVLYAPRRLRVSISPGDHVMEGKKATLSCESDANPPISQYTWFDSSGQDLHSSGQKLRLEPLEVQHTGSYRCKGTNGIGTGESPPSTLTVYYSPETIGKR
Nature of the assay: SPR binding affinity to mouse CD22. Conditions: steady-state analysis. The method, boiled down:
(§1)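 Native sialic acid residues are removed from the receptor enzymatically (4 hours at 37° C.) prior to streptavidin capture of the biotinylated protein. Ligand compounds then flow over in HEPES-buffered saline, pH 7.5, containing 0.05% Tween-20 and 1% DMSO, and binding is evaluated at steady state.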
(In general: In SPR one partner is held on a chip, and binding of the other changes the refractive index at the surface.)

In assay [2] the target is T2, human Siglec-2/CD22 protein (Homo sapiens, UniProt P20273).
T2 construct: purchased Acro Biosystems SI2-H82E3
T2 sequence (P20273 20-847): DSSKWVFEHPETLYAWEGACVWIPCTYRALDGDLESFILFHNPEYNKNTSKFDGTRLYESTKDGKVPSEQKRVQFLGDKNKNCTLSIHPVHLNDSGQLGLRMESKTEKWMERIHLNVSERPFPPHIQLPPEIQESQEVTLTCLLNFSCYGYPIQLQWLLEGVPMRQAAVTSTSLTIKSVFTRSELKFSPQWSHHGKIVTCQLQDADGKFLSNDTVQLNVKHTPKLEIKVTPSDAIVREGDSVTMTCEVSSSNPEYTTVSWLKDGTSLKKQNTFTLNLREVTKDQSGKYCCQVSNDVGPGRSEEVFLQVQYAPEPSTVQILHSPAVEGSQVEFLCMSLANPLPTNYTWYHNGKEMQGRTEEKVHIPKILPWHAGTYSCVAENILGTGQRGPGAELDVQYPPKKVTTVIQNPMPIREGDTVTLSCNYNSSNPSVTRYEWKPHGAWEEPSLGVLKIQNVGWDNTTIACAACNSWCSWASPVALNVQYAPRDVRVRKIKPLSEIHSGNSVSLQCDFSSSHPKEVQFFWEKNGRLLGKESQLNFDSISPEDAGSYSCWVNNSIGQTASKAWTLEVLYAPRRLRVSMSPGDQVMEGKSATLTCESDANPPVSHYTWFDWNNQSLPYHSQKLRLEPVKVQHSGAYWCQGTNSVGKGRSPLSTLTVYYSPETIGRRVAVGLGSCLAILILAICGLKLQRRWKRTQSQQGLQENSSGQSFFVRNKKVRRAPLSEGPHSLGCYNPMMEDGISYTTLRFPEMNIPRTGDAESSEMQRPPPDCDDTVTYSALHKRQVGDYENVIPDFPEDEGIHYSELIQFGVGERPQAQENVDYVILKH
The experiment in a line: SPR binding affinity to human CD22. Conditions: steady-state analysis. The method, boiled down: as §1

Another assay addresses cynomolgus Siglec-2/CD22 (Macaca fascicularis, UniProt A0A2K5WCZ6). The experiment in a line: biochemical. As to conditions: SPR, steady-state analysis; read-out: Affinity cyno CD22. The format is binding. As for the experimental part: Prior to immobilization, CD22 proteins were treated with SialoExo (Genovis, Cat #G1-SM1-020) for 4 hours at 37° C. to remove native sialic acid residues.
Surface preparation for cyno CD22 protein consisted of amine coupling to Cytiva CM5 chip (Cytiva, Cat #BR100530) using the Cytiva amine coupling kit Type 2 (Cytiva, Cat #BR100633). Following the standard amine coupling protocols, EDC and NHS from the kit were mixed 1:1 and injected over flow cells 1 and 2. […] Any active carboxy groups were then capped with 1M Ethanolamine, pH 8.5 for 420s on flow cells 1 and 2.
Binding experiments of Siglec-ligand conjugated proteins or Siglec ligand compounds were performed on the surfaces prepared above in 10 mM HEPES, 150 mM NaCl, 0.05% Tween-20, pH 7.5, 1% DMSO as the running buffer. […] The compounds were then allowed to dissociate from the surface for 120 seconds. […] Solvent correction was performed using 0.5, 1, 1.5, and 2% DMSO spike into running buffer without DMSO. […] Data was analyzed using steady-state analysis in Biacore Insight Evaluation Software, version 3.0 for Siglec ligand compounds.

Some results are limits rather than exact numbers.

Chain of cynomolgus Siglec-2/CD22 (A0A2K5WCZ6 entry or part of it): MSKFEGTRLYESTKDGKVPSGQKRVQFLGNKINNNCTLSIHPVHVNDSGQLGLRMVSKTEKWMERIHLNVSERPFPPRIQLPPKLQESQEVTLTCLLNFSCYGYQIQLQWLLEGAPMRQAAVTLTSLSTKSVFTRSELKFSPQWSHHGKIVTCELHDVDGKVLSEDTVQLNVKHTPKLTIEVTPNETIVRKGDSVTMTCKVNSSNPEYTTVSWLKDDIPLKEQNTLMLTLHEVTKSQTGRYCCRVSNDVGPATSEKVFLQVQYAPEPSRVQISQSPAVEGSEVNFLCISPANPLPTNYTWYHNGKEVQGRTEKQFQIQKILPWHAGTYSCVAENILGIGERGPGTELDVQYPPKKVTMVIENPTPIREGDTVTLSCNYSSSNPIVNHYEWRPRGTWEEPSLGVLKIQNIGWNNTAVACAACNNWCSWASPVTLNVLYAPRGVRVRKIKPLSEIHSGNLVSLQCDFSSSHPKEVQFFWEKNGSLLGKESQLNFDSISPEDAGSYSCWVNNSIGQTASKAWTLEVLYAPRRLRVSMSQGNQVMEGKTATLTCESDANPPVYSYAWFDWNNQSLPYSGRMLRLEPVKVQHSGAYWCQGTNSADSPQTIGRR

With `C#CCCOc1ccc(CO[C@]2(C(=O)O)C[C@H](O)[C@@H](NC(=O)CO)[C@H]([C@H](O)[C@H](O)CNC(=O)Cc3ccc4cn[nH]c4c3)O2)cc1` [Compound 10, (2R,4S,5R,6R)-6-((1R,2R)-3-(2-(1H-indazol-6-yl)acetamido)-1,2-dihydroxypropyl)-2-((4-(but-3-yn-1-yloxy)benzyl)oxy)-4-hydroxy-5-(2-hydroxyacetamido)tetrahydro-2H-pyran-2-carboxylic acid], the Kd (in assay [1]; in assay [2]; at cynomolgus Siglec-2/CD22) was 1 to 10 µM each time.
As to `C#CCOCCOCCO[C@]1(C(=O)O)C[C@H](O)[C@@H](NC(=O)CO)[C@H]([C@H](O)[C@H](O)CNC(=O)Cc2ccc3c(c2)CC(=O)N3)O1` [Compound 11, (2R,4S,5R,6R)-6-((1R,2R)-1,2-dihydroxy-3-(2-(2-oxoindolin-5-yl)acetamido)propyl)-4-hydroxy-5-(2-hydroxyacetamido)-2-(2-(2-(prop-2-yn-1-yloxy)ethoxy)ethoxy)tetrahydro-2H-pyran-2-carboxylic acid], the figures for the Kd (in assay [1]; in assay [2]; on cynomolgus Siglec-2/CD22) were more than 10 µM, 1 to 10 µM and more than 10 µM, respectively.
As for `C#CCOCCOCCO[C@]1(C(=O)O)C[C@H](O)[C@@H](NC(=O)CO)[C@H]([C@H](O)[C@H](O)CNC(=O)CCCCCCCCCCCCCCC)O1` [Compound 13, (2R,4S,5R,6R)-6-((1R,2R)-1,2-dihydroxy-3-palmitamidopropyl)-4-hydroxy-5-(2-hydroxyacetamido)-2-(2-(2-(prop-2-yn-1-yloxy)ethoxy)ethoxy)tetrahydro-2H-pyran-2-carboxylic acid], the Kd (in assay [1]; in assay [2]; at cynomolgus Siglec-2/CD22) was more than 10 µM each time.
Consider `C#CCOCCOCCO[C@]1(C(=O)O)C[C@H](O)[C@@H](NC(=O)CO)[C@H]([C@H](O)[C@H](O)CNC(=O)C[C@H]2CC[C@H](O)CC2)O1` [Compound 14, (2R,4S,5R,6R)-6-((1R,2R)-1,2-dihydroxy-3-(2-((1r,4R)-4-hydroxycyclohexyl)acetamido)propyl)-4-hydroxy-5-(2-hydroxyacetamido)-2-(2-(2-(prop-2-yn-1-yloxy)ethoxy)ethoxy)tetrahydro-2H-pyran-2-carboxylic acid], for which the Kd was 1 to 10 µM in assay [1], more than 10 µM in assay [2] and more than 10 µM on cynomolgus Siglec-2/CD22.
As to `C#CCOCCOCCO[C@]1(C(=O)O)C[C@H](O)[C@@H](NC(=O)CO)[C@H]([C@H](O)[C@H](O)CNC(=O)CC)O1` [Compound 15, (2R,4S,5R,6R)-6-((1R,2R)-1,2-dihydroxy-3-propionamidopropyl)-4-hydroxy-5-(2-hydroxyacetamido)-2-(2-(2-(prop-2-yn-1-yloxy)ethoxy)ethoxy)tetrahydro-2H-pyran-2-carboxylic acid], the Kd (in assay [1]; in assay [2]; at cynomolgus Siglec-2/CD22) was more than 10 µM throughout.
For `C#CCCOc1ccc(CO[C@]2(C(=O)O)C[C@H](O)[C@@H](NC(=O)CO)[C@H]([C@H](O)[C@H](O)CN)O2)cc1` [Compound 16, (2R,4S,5R,6R)-6-((1R,2R)-3-amino-1,2-dihydroxypropyl)-2-((4-(but-3-yn-1-yloxy)benzyl)oxy)-4-hydroxy-5-(2-hydroxyacetamido)tetrahydro-2H-pyran-2-carboxylic acid], the Kd (in assay [1]; in assay [2]; at cynomolgus Siglec-2/CD22) was more than 10 µM each time.
For `C#CCOCCOCCO[C@]1(C(=O)O)C[C@H](O)[C@@H](NC(=O)CO)[C@H]([C@H](O)[C@H](O)CNC(=O)c2cccc(Oc3ccc(O)cc3)c2)O1` [Compound 18, (2R,4S,5R,6R)-6-((1R,2R)-1,2-dihydroxy-3-(3-(4-hydroxyphenoxy)benzamido)propyl)-4-hydroxy-5-(2-hydroxyacetamido)-2-(2-(2-(prop-2-yn-1-yloxy)ethoxy)ethoxy)tetrahydro-2H-pyran-2-carboxylic acid], the Kd in assay [1] was 1 to 10 µM; in assay [2], less than 1 µM; on cynomolgus Siglec-2/CD22 it was 1 to 10 µM.
As for `C#CCOCCOCCO[C@]1(C(=O)O)C[C@H](O)[C@@H](NC(=O)CO)[C@H]([C@H](O)[C@H](O)CNC(=O)c2ccc(-c3ccc(O)cc3)cc2)O1` [Compound 19, (2R,4S,5R,6R)-6-((1R,2R)-1,2-dihydroxy-3-(4′-hydroxy-[1,1′-biphenyl]-4-carboxamido)propyl)-4-hydroxy-5-(2-hydroxyacetamido)-2-(2-(2-(prop-2-yn-1-yloxy)ethoxy)ethoxy)tetrahydro-2H-pyran-2-carboxylic acid], the Kd is 1 to 10 µM in assay [1], less than 1 µM in assay [2] and 1 to 10 µM at cynomolgus Siglec-2/CD22.
Take `C#CCCOc1ccc(CO[C@]2(C(=O)O)C[C@H](O)[C@@H](NC(C)=O)[C@H]([C@H](O)[C@H](O)CNC(=O)c3cccc(Oc4ccccc4)c3)O2)cc1` [Compound 22, (2R,4S,5R,6R)-5-acetamido-2-((4-(but-3-yn-1-yloxy)benzyl)oxy)-6-((1R,2R)-1,2-dihydroxy-3-(3-phenoxybenzamido)propyl)-4-hydroxytetrahydro-2H-pyran-2-carboxylic acid]: the Kd in assay [1] is more than 10 µM; in assay [2], less than 1 µM; on cynomolgus Siglec-2/CD22, 1 to 10 µM.
As for `C#CCCOc1cccc(CO[C@]2(C(=O)O)C[C@H](O)[C@@H](NC(C)=O)[C@H]([C@H](O)[C@H](O)CNC(=O)c3cccc(Oc4ccccc4)c3)O2)c1` [Compound 23, (2R,4S,5R,6R)-5-acetamido-2-((3-(but-3-yn-1-yloxy)benzyl)oxy)-6-((1R,2R)-1,2-dihydroxy-3-(3-phenoxybenzamido)propyl)-4-hydroxytetrahydro-2H-pyran-2-carboxylic acid], the results for the Kd (in assay [1]; in assay [2]; at cynomolgus Siglec-2/CD22) were more than 10 µM, 1 to 10 µM and 1 to 10 µM, respectively.
For the compound `C#CCOC[C@H](O)[C@@H](O)CO[C@]1(C(=O)O)C[C@H](O)[C@@H](NC(=O)CO)[C@H]([C@H](O)[C@H](O)CNC(=O)Cc2ccc(Cl)cc2)O1` [Compound 24, (2R,4S,5R,6R)-6-((1R,2R)-3-(2-(4-chlorophenyl)acetamido)-1,2-dihydroxypropyl)-2-((2S,3S)-2,3-dihydroxy-4-(prop-2-yn-1-yloxy)butoxy)-4-hydroxy-5-(2-hydroxyacetamido)tetrahydro-2H-pyran-2-carboxylic acid], the Kd was more than 10 µM in assay [1], 1 to 10 µM in assay [2] and 1 to 10 µM at cynomolgus Siglec-2/CD22.
`C#CCOCCCCCCO[C@]1(C(=O)O)C[C@H](O)[C@@H](NC(=O)CN(C)C)[C@H]([C@H](O)[C@H](O)CNC(=O)Cc2ccc(Cl)cc2)O1` [Compound 25, (2R,4S,5R,6R)-6-((1R,2R)-3-(2-(4-chlorophenyl)acetamido)-1,2-dihydroxypropyl)-5-(2-(dimethylamino)acetamido)-4-hydroxy-2-((6-(prop-2-yn-1-yloxy)hexyl)oxy)tetrahydro-2H-pyran-2-carboxylic acid]: the Kd in assay [1] was 1 to 10 µM; in assay [2], more than 10 µM; at cynomolgus Siglec-2/CD22, 1 to 10 µM.
